Converted amounts (≈) assume the structure as drawn. Read-outs that look alike come from different tables or passages of the source.
Columns and labels:
[1] = Formation of inclusion complexes with MCD (UV spectroscopy, Hill linearization); type: physicochemical; settings: MCD; for EE, % / LC, %: C(MCD) = 0.01 M, pH 6.2, 22 °C; for n: Xaq + n MCDaq ⇌ X·nMCDaq, 5 mM sodium phosphate buffer pH 6.2, 22 °C
Procedure: To optimize the system composition, similar experiments were carried out on the formation of EG and apiol inclusion complexes with HPCD (Figure S1). […] According to these changes, the dissociation constants of the EG–HPCD and apiol–HPCD complexes (Figure S2) were calculated by Hill’s equation (Table 1). […] The physicochemical parameters of the interaction of APAB and terpenoids (X) with CD were studied by determining the concentration of substances in the aqueous fraction ([APAB] + [APAB-MCD]) according to the calibration dependence (Figure 1C) for systems with a constant amount of the essential oil component X and the concentration gradient MCD (Table 1). Theta (θ) is a fraction of the bound substance X:θ = [X-MCD]/([X-MCD] + [X]) and was calculated based on the dependence of the absorption intensity X on the MCD concentration in the system in the form of a sigmoidal Hill curve with subsequent linearization (Section 3, Section 3.3 and Section 3.4).
The molar excess of CD varied from 0.04 to 10). Further, the complexes were incubated for 1 h at 37 °C and then centrifuged ([…], 15 min, Eppendorf tubes) to separate the insoluble fractions. Complexes were studied by UV and FTIR spectroscopy.
UV spectra of solutions (point 3.3.1) were recorded on the AmerSham Biosciences UltraSpec 2100 pro device (USA) three times in the range of 200–400 nm in a quartz cell Hellma 100–QS with an optical path of 1 cm. Background spectrum (5 mM sodium phosphate buffer (pH 6.2) with 50% EtOH) was subtracted as a blank.
(1) Calculation of the dissociation constants X–MCD and X–HPCD, where X is a “guest” compound, considering the equilibrium: Xaq + n MCDaq ↔ X·nMCDaq, where Kd = [MCDaq]^n · [Xaq]/[X·nMCDaq].
First, fitting of the curves of change of the analytical signal ξ (peak intensity or peak position) versus concentration of the MCD or HPCD or was carried out using the Hill equations: (1) ξ = ξ∞ · [MCD]^n/([MCD]^n + K^n), where ξ∞—horizontal asymptote; (2) ξ = ξ0 + (ξ∞–ξ0) · [MCD]^n/([MCD]^n + K^n). Second, calculation n and Kd values by Hill’s linearization in n-binding site model: lg (θ/(1 – θ)) = n · lg [L] – lg Kd, where θ = |(ξ – ξ0)/(ξ∞ − ξ0)|is a fraction of the bound substance. N in Hill equation—number of drug molecules per CD torus.
Calculations for the following items are performed when [MCD] = 0.01 M.

B. subtilis (NCIB 8054) = assay: Agar diffusion test, MIC; type: cell-based, Bacillus subtilis; settings: Bacillus subtilis
Procedure: The strains used in this study were Escherichia coli (NCIB 12210) and Bacillus subtilis (NCIB 8054) from National Resource Center All-Russian collection of industrial microorganisms SIC “Kurchatov Institute”). The culture was cultivated for 18–20 h at 37 °C to CFU ≈ 5 × 10^6 – 8 × 10^6 (determined by A600) in liquid nutrient medium Luria–Bertani (pH 7.2): E. coli—without stirring, B. subtilis—with stirring 180 rpm.
The study of the antibacterial effect of Lev and adjuvants was carried out by (a) agar diffusion test and (b) broth micro-dilution method. (a) A measured 500 µL of 100-fold culture dilution was evenly distributed over a solid nutrient medium (LB, pH 7.2) on a Petri dish. After 20 min, agar disks with a diameter of 9 mm were removed from the cups and 50 µL of the test samples were placed in the formed wells at the required concentration in a sterile PBS buffer (see Section 3.3 (2)). After 30 min, Petri dishes were placed in a 37 °C thermostat. After 24 h, the diameters of the growth inhibition zones were measured. Minimum inhibitory concentrations (MICs) are determined as the infimum of multiple concentrations of an antimicrobial that inhibits the visible growth of a microorganism after overnight incubation. (b) According to the standard broth micro-dilution method, 200 µL of the overnight culture (5 × 10^6 CFU) was placed into a 96 micro-titer plate wells. Then 50 µL of tested samples was added. The range of tested Lev concentration was 4–200 ng/mL, adjuvants concentration was in the range of 0.008–2 mg/mL. Optical density measurements at 600 nm were taken at various times (0, 3, and 18 h) to determine the number of cells. The dependence of CFU (determined by A600) on the concentration of Lev, APAB or terpenoid (briefly X) was approximated according to the Boltzmann equation (Origin software): CFU = (control CFU)/(1 + exp(([X] − MIC50)/constant value)). MIC50 and MIC90 are defined as concentrations at which the inhibition of bacterial growth by 50 and 90% is noticeable, respectively. In other words, the concentration at which the ordinate value (CFU) is equal to 50 or 10% of the control sample minus the background.

physchem = settings: 22 °C, pH 6.2, water
Procedure: (3) Solubility of X in water C0 = [Xaq] = A/(ε · l) was determined by UV absorbance after centrifugation of samples (10 min, 10,000× g). l = 1 cm. ε—molar absorbance coefficient (Figure 1C).

[2] = NCIB8054, B. subtilis 7 × 10^6 CFU, agar diffusion test, inclusion complexes with MCD, LB pH 7.2, 37 °C, 20 h, read-out: MIC

| Compound | EE, % [1] | LC, % [1] | n [1] | MIC (B. subtilis (NCIB 8054); NCIB8054, 20 h, pH 7.2) | EE, % ([1]; listed as menthol) | MIC (B. subtilis (NCIB 8054); [2]) | MIC (B. subtilis (NCIB 8054); NCIB8054, B. subtilis, agar diffusion test, read-out: MIC) | solubility (physchem) | EE, % ([1]; listed as safrole) |
| --- | --- | --- | --- | --- | --- | --- | --- | --- | --- |
| C=CCc1cc(OC)c2c(c1OC)OCO2 [Apiol] | 20 ± 2% | 11 ± 1% | 1.6 ± 0.2 | 5300 µg/mL (≈ 23.8 mM) | – | – | – | – | – |
| CC1CCC(C(C)C)C(O)C1 (stereo not shown) [Menthol] | 91 ± 6% | 11 ± 1% | 1.1 ± 0.1 | – | more than 90% | 2600 µg/mL (≈ 16.6 mM) | 2.6 µg/mL (≈ 0.0166 mM) | 230 ± 40 µM (≈ 35.9 µg/mL) | – |
| C=CCc1ccc(O)c(OC)c1 [Eugenol, 4-allyl-2-methoxyphenol] | 39 ± 3% | 10 ± 1% | 1.32 ± 0.08 | – | – | 1000 µg/mL (≈ 6.09 mM) | – | 8200 ± 200 µM (≈ 1350 µg/mL) | – |
| C=CCc1ccc2c(c1)OCO2 [Safrole] | 95 ± 4% | 8 ± 1% | 1.5 ± 0.2 | – | – | 3900 µg/mL (≈ 24 mM) | – | 800 ± 100 µM (≈ 130 µg/mL) | more than 90% |

From PMC9321718 (Pharmaceuticals, 2022)
